From patent US20130281526A1, “METHOD FOR TREATING IRRITABLE BOWEL SYNDROME WITH DIARRHEA” (SUCAMPO AG, priority 2012, published 2013)

How the values were obtained:
[1] = tested on: patients with irritable bowel syndrome with diarrhea; experiment: Subject symptom assessments, change from baseline after 12 weeks treatment; type: in vivo, human; conditions: 16 mcg per day for 12 weeks
Method: The patients with irritable bowel syndrome with diarrhea defined in Example 1 received luboiprostone 16 mcg per day for 12 weeks.
The assessments were conducted by the following criterias.
Subject Evaluation of Abdominal Bloating: 0=Absent, 1=Mild, 2=Moderate, 3=Severe, and 4=Very Severe Subject Evaluation of Abdominal. Discomfort/Pain: 0=Absent, 1=Mild, 2=Moderate, 3=Severe, and 4=Very Severe Subject Evaluation of Constipation Severity: 0= Absent, 1=Mild, 2=Moderate, 3=Severe, and 4=Very Severe BM Frequency=(7×Number of BMs)/(Number of days) Subject Evaluation of Bowel Straining: 0=Absent, 1=Mild, 2=Moderate, 3=Severe, and 4=Very Severe

[2] = tested on: patients with irritable bowel syndrome with diarrhea; experiment: Weekly responder rate for relief of IBS symptoms (7-point balanced scale) in patients; type: in vivo, human; conditions: 16 mcg per day, responder = moderately or significantly relieved
Excerpt: The patients who had 25% or more loose or very loose stools during the baseline were enrolled as a patient with irritable bowel syndrome with diarrhea. The patients received placebo or lubiprostone 16 mcg per day.

For `CCCCC(F)(F)[C@@]1(O)CC[C@H]2[C@@H](CC(=O)[C@@H]2CCCCCCC(=O)O)O1` [lubiprostone, (−)-7-[(2R, 4aR, 5R, 7aR)-2-(1,1-difluoropentyl)-2-hydroxy-6-oxooctahydrocyclopenta[b]pyran-5-yl]heptancoic acid], which “BM Frequency, change from the baseline after the treatment” value ([1]; BM Frequency=(7×Number of BMs)/(Number of days), baseline 3.64) is on record?
The value was 0.36.

What about the “Abdominal Discomfort/Pain, change from the baseline after the treatment” value ([1]; score 0=Absent to 4=Very Severe, baseline 2.80) of the same compound?
Its value is −1.08.

And the “Constipation Severity, change from the baseline after the treatment” value ([1]; score 0=Absent to 4=Very Severe, baseline 3.16)?
The value was −1.31.

What about the “Abdominal Bloating, change from the baseline after the treatment” value ([1]; score 0=Absent to 4=Very Severe, baseline 3.28) of the same compound?
Its value is −1.37.

What about the “Bowel Straining, change from the baseline after the treatment” value ([1]; score 0=Absent to 4=Very Severe, baseline 4.00) of the same compound?
The value was −2.00.

And the “Weekly Responder Rate” value ([2]; Week 2)?
Its value is 33.8%.

And the “Weekly Responder Rate” value ([2]; Week 3)?
Its value is 34.9%.

What about the “Weekly Responder Rate” value ([2]; Week 4) of the same compound?
The value was 34.7%.
